Our source for the IC50 values is ChEMBL document CHEMBL1128966, “Benzylphosphonic acid inhibitors of human prostatic acid phosphatase” (Bioorg Med Chem Lett, 1996).

For orientation: IC50 means the concentration at which inhibition is half-maximal. High values mean weaker potency, low ones greater potency.

The experiment deals with T1, Prostatic acid phosphatase (Homo sapiens, UniProt P15309).
T1 sequence (P15309 whole entry): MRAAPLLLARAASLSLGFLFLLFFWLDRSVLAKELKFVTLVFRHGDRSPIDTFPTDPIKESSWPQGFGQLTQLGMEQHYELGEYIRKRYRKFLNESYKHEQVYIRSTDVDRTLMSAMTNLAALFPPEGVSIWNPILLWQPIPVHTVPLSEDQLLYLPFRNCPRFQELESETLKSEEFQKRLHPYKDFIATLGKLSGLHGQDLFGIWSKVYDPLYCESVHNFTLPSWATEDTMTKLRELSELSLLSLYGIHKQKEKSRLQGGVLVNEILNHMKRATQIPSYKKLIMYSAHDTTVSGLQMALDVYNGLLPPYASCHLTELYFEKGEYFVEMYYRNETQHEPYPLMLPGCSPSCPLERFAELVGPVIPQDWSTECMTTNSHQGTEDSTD
The experiment is described as follows: Inhibition of human prostatic acid phosphatase was determined as inhibition of the hydrolysis of tyrosine phosphate.
Compound `O=P(O)(O)C(CCc1ccccc1)c1ccccc1` (configuration not stated) came in with an IC50 of 14 µM.
In turn, `O=P(O)(O)Cc1cccc(C(F)(F)F)c1` registered a 50% inhibitory concentration (IC50) of 88 µM.
Under `O=P(O)(O)C(c1ccc(-c2ccccc2)cc1)c1ccc(-c2ccccc2)cc1` stands 70 µM; under `O=P(O)(O)C1c2ccccc2CCc2ccccc21`, 94 µM; under `O=P(O)(O)C(c1ccccc1)c1ccccc1`, 142 µM.
`O=P(O)(O)C1c2ccccc2Sc2ccccc21` yielded an IC50 of over 100 µM.
Under `O=P(O)(O)C(Cc1ccc(-c2ccccc2)cc1)c1ccccc1` (configuration not stated) stands 16 µM; under `O=P(O)(O)C1c2ccccc2C=Cc2ccccc21`, over 100 µM; under `O=P(O)(O)C1c2ccccc2-c2ccccc21`, over 500 µM.
Under `O=P(O)(O)C(c1ccccc1)c1ccc(-c2ccccc2)cc1` (configuration not stated) stands 67 µM.
Turning to `O=P(O)(O)Cc1ccccc1` [BENZYLPHOSPHONIC ACID], the IC50 is over 500 µM.
Compound `O=P(O)(O)C1c2ccccc2Oc2ccccc21` displayed an IC50 of 22 µM.
